Experimental findings from patent US20240059688A1, “CONOLIDINE ANALOGUES AS SELECTIVE ACKR3 MODULATORS FOR THE TREATMENT OF CANCER” (Luxembourg Institute of Health (LIH), priority 2020, published 2024) are described below.

The structures appear in SMILES notation. Marks after values point to notes of the source that are not given here.

Format in all cases: cell-based
One test concerns the target KOR (Homo sapiens, UniProt P41145). The test can be described thus: KOR calcium mobilization agonist/antagonist screen (CHO-RD-HGA16 cells). On the set-up: host or cells: CHO-RD-HGA16. As to conditions: single concentration; for Emax: CHO-RD-HGA16, agonist screen, control agonist U69,593; for KOR Calcium % U69, 593 Inhibition: antagonist screen, vs EC60 of U69,593. The method, then: Compounds were evaluated for kappa (KOR), mu (MOR), and delta (DOR) opioid receptor agonist and antagonist activity in three individual cell lines overexpressing Gαq16 (CHO-RD-HGA16, Molecular Devices) and the human kappa, mu, and delta opioid receptors, respectively. The day before the assay, cells were plated into 96-well black-walled assay plates at 30,000 cells/well in Ham's F12 supplemented with 10% fetal bovine serum, and 100 units of penicillin and streptomycin. The cells were incubated overnight at 37° C., 5% CO2. Prior to the assay, Calcium 5 dye (Molecular Devices) was reconstituted according to the manufacturer's instructions. The reconstituted dye was diluted 1:40 in pre-warmed (37° C.) assay buffer (1×HBSS, 20 mM HEPES, 2.5 mM probenecid, pH 7.4 at 37° C.). Growth medium was removed and the cells were gently washed with 100 μL of pre-warmed (37° C.) assay buffer. The cells were incubated for 45 minutes at 37° C., 5% CO2 in 200 μL of the diluted Calcium 5 dye. For the agonist screen, a single concentration of each test compound and receptor-specific controls (U69,593, DAMGO, and DPDPE for KOR, MOR, and DOR, respectively) were prepared at 10× the desired final concentration in 1% DMSO/assay buffer, aliquoted into a 96-well polystyrene plate, and warmed to 37° C. After the dye-loading incubation period, pretreatment solution was added to each well (25 μL of 9% DMSO/assay buffer) and, after 15 min, the plate was read with a FlexStation II (Molecular Devices). Calcium-mediated changes in fluorescence were monitored every 1.52 seconds over a 60 second time period, with the FlexStation II adding 50 μL of test compounds at the 19 second time point (excitation at 485 nm, detection at 525 nm). Peak kinetic reduction (SoftMax, Molecular Devices) relative fluorescence units (RFU) were used to calculate % control agonist Emax with the equation % Emax=(test compound RFU/control agonist RFU)×100. For the antagonist screens, the same procedure was followed except that the pretreatment solution consisted of the test compounds (prepared at […] the desired final concentration in 9% DMSO/assay buffer) and the FlexStation added the EC60 concentration (prepared at 10× the desired final concentration in 1% DMSO/assay buffer) of each respective control agonist. Peak RFU were used to calculate % control EC60 inhibition with the equation % inhibition=((EC60 RFU−test compound RFU)/EC60 RFU)×100. When IC50 determinations were made, the same antagonist screen procedure was followed except that cells were pretreated with 8-pt concentration-response curves of the test compounds. Peak RFU were plotted against the log of compound concentration using non-linear regression analysis to generate IC50 values (GraphPad Prism). Each test sample was analyzed in duplicate in two independent experiments.
(Calcium flux is commonly read through the fluorescence of an indicator in the cells.)

In another test the target is T1, human CXCR4 (Homo sapiens, UniProt P61073).
T1 construct: host or cells: C2C12
T1 sequence (P61073 whole entry): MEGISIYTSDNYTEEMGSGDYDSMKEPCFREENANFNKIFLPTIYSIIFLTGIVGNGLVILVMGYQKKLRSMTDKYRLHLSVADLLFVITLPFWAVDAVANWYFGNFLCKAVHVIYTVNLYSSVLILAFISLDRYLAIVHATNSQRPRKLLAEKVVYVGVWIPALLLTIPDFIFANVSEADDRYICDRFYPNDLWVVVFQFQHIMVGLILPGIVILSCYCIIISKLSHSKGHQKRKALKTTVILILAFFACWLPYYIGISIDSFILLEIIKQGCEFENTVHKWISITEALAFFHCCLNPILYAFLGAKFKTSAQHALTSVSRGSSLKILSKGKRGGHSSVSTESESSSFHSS
Nature of the test: CXCR4 β-arrestin recruitment assay (PathHunter). The settings on record: human CXCR4-C2Cl2 cells, relative to CXCL-12. The method in brief: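 Agonist mode in PathHunter CHO cells expressing human ACKR3-β-arrestin-2, compounds added in DPBS/1% DMSO for 1.5 hr at 37° C, then detection 1 hr at room temperature, luminescence read. CXCR4 run in C2C12 cells with a 3 hr Cell Plating Reagent 4 preincubation. EC50 and % Emax from three-parameter fits, CXCL-12 as reference agonist; ≥2 independent experiments in duplicate.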

The next test concerns the target T2, CX3CR1 (Homo sapiens, UniProt P49238).
T2 construct: expressed in transfected cells; host or cells: U87
T2 sequence (P49238 1-355): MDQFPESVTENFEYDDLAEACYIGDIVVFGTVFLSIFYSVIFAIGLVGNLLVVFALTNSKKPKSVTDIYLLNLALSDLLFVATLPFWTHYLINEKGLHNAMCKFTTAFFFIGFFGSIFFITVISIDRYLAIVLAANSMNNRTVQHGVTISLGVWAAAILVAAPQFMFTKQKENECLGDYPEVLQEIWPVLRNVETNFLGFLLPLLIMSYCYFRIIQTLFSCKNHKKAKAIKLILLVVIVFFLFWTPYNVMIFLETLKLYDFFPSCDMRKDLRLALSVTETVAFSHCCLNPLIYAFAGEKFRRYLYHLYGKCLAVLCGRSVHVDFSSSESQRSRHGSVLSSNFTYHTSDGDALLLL
The test can be described thus: NanoBiT β-arrestin-1 recruitment, receptor selectivity panel, CX3CR1. As to conditions: higher concentrations (3 μM, 10 μM); FIG. 3 sections B and C. On the procedure:
To further assess the selectivity profile of the compounds of the invention towards ACKR3, the ability to activate the 21 classical and 4 atypical chemokines receptors and related receptors was tested using the NanoBiT assay based β-arrestin-1 recruitment described previously. The 4 classical opioid receptors described above were also included in the experimental setup. The compounds WW-1 (conolidine) and WW-12 were tested at three different concentrations, 1 μM, 3 μM and 10 μM.
This possible off-target effect was further characterized by comparing the ability of the two molecules to activate receptors ACKR4, CX3CR1 and CCR3 with reference ligands for the receptors, namely CCL19, CX3CL1 and CCL13.
Ligand-induced β-arrestin recruitment to chemokine and opioid receptors was monitored by NanoLuc complementation assay (NanoBiT, Promega). […] Ligand-induced, β-arrestin to GPCRs was evaluated with a Mithras LB940 luminometer (Berthold Technologies, running on MicroWin 2010 5.19 software (Mikrotek Laborsysteme)) for 20 minutes.
For single dose screening experiments on all chemokine receptors(FIG. 3), the results are represented as percentage of signal monitored with 100 nM of one known agonist chemokine listed in the IUPHAR repository of chemokine receptor ligands which was added as positive control.

KOR, sequence (P41145 whole entry): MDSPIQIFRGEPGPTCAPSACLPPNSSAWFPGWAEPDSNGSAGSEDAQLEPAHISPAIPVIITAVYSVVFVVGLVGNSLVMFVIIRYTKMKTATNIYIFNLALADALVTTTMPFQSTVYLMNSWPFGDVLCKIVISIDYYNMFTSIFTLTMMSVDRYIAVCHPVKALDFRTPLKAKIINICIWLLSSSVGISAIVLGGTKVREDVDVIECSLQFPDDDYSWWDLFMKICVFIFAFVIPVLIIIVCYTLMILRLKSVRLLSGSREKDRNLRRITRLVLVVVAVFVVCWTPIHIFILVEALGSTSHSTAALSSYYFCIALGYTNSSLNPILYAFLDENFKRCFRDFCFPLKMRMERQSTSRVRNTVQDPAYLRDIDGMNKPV

As usually defined, the Emax is the size of the effect at its maximum, as opposed to the concentration needed. In the case of `C/C=C1/CN2CC[C@H]1C(=O)c1[nH]c3ccccc3c1C2` [WW-1, (4E,5R)-4-ethylidene-1,4,5,7-tetrahydro-2,5-ethanoazocino[4,3-b]indol-6(3H)-one], on KOR, the Emax came to 9% and the “KOR Calcium % U69, 593 Inhibition” value is listed as 11%. The “CXCR4 β-arrestin % CXCL-12Emax (n = 2)” value on human CXCR4 is 3%. On CX3CR1, the “activation of CX3CR1 (β-arrestin-1 recruitment) in receptor panel” value was “weak activation”.

As for `C/C=C1/CN(CCCCC)CC[C@H]1C(=O)c1cc2ccccc2[nH]1` [WW-12, [(3E,4R)-3-ethylidene-1-pentylpiperidin-4-yl](1H-indol-2-yl)methanone], on KOR, the Emax is 7% and the “KOR Calcium % U69, 593 Inhibition” value is listed as 69** %. Also, the “CXCR4 β-arrestin % CXCL-12Emax (n = 2)” value at human CXCR4 was found to be 4%. Besides, the “activation of CX3CR1 (β-arrestin-1 recruitment) in receptor panel” value at CX3CR1 is listed as “weak activation”.
